According to US20190351031A1, “METHODS OF SELECTING SUBJECTS FOR COMBINATION CANCER THERAPY WITH A POLYMER-CONJUGATED SOLUBLE PH20” (HALOZYME, INC., priority 2018, published 2019):

What was measured:
[1] = test system: B16 melanoma model; conditions: oral 600 mg/kg/d (Yoshihara et al. 2005); cited from earlier work
[2] = route: IV or PO; cited from earlier work
[3] = target: T1, cytidine deaminase (Homo sapiens, UniProt P32320); conditions: cited from earlier work
T1 construct: for the enzyme purified from human liver; host or cells: human liver

[4] = test system: BxPC3 pancreatic cancer cell line; assay: Tumor growth inhibition in BxPC-3 human pancreatic tumor xenograft model; format: in vivo, mouse; conditions: gemcitabine 60, 120, 180 and 240 mg/kg once a week, day 0, 7, 14, 21
Procedure: Tumor cells from the BxPC3 pancreatic cancer cell line (American Tissue Culture Collection (ATCC) CRL-1687) were grown to approximately 80% confluency, trypsinized, collected, washed once in HBSS (Hank's balance salt solution, Mediatech Inc.). Prior to inoculation, cells were washed twice with sterile HBSS, counted using a Nexcelom Cellometer (Nexcelom Bioscience; Lawrence, Mass.) automated counting device which determines cell concentration and viability via Trypan Blue exclusion and diluted with HBSS to a concentration of 1×10^8 cells/mL on ice before inoculation into animals. Male nude mice (Athymic NCr nu/nu mice, Taconic Laboratories, Inc.) approximately 6 weeks old, were inoculated intramuscularly (IM) with 0.05 mL of cell suspension, peritibially, in the left hind leg (adjacent to the tibia periosteum). The tumors in the animals were assessed twice a week and allowed to grow to a mean tumor volume of approximately 350-400 mm^3. Actual tumor volumes were determined using VisualSonics Vevo 770 high-resolution ultrasound (VisulaSonics Inc.; Toronto, Ontario, Canada). […]
The tumor volumes of all mice were measured by capturing images using the VisualSonics ultrasound system 2 times per week. Tumor volume was calculated using a 3D-mode imaging software program (VisualSonics® Vevo 770®, v 3.0.0). The percent tumor growth inhibition (% TGI) was calculated by the following equation: […]

[5] = test system: BxPC3 pancreatic cancer cell line; assay: Median survival time (time to survival endpoint) in BxPC-3 xenograft model; format: in vivo, mouse; conditions: three 4-week dosing cycles; PEGPH20 4.5, nab-paclitaxel 10 mg/kg, gemcitabine 180 mg/kg
Procedure: Following the first four week dosing cycle as set forth in part A, the dosing cycle was repeated two times and time to survival endpoint was followed over time. Briefly, in each dosing cycle, animals were treated with vehicle or PEGPH20 ([…]) with or without nab-paclitaxel (10 mg/kg) intravenously twice a week for four weeks. In each cycle, groups receiving gemcitabine were administered gemcitabine (180 mg/kg) 24 hours after PEGPH20 and/or nab-paclitaxel every 7 days for three weeks of the dose cycle. Time to survival endpoint, a measure of animal survival, was defined as (a) time to tumor volume of greater than 2000 mm^3, (b) time to a greater than 20% bodyweight loss, or (c) time to animal duress or death.

[6] = test system: carbohydrate antigen 19-9 (CA19-9); assay: Serum CA19-9 tumor biomarker ELISA in BxPC-3 xenograft model; format: in vivo, mouse; conditions: day 20 of first dosing cycle
Procedure: C. Measurement of Tumor Biomarkers Biomarkers carbohydrate antigen 19-9 (CA19-9) and carcinoembryonic antigen (CEA) associated with pancreatic cancer were tested to measure therapeutic response. Animals were treated as described in part A. Serum was collected from satellite animals ([…]) from each group on day 0, 6, 13 and 20 of the first dosing cycle. Human CA19-9 was measured using a CA 19-9 ELISA kit (Catalog No. CA199T, Calbiotech, Spring Valley, Calif.) and CEA tumor antigen was measured using a CEA ELISA kit (Catalog No. CE062T, Calbiotech, Spring Valley, Calif.).

[7] = test system: pancreatic cancer; conditions: gemcitabine monotherapy (Burris et al. 1997); cited from earlier work
[8] = in vivo; cited from earlier work

T1 sequence (P32320 whole entry): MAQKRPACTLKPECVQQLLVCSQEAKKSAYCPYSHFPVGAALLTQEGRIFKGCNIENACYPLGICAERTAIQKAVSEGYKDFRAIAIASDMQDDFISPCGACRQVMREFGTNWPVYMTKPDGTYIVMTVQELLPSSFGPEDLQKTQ

SMILES: Cc1cc(=O)oc2cc(O)ccc12 [4-MU, 7-hydroxy-4-methylcoumarin]
- reduction of metastases [1]: 64%

SMILES: C[C@]12CCC(=O)C=C1CC[C@@H]1[C@@H]2[C@@H](O)C[C@@]2(C)[C@H]1CC[C@]2(O)C(=O)CO [Hydrocortisone]
- Equivalent Potency [2]: 20 mg

SMILES: Nc1ccn([C@H]2C[C@H](O)[C@@H](CO)O2)c(=O)n1 [deoxycytidine]
- rate of deamination relative to decitabine at equal concentrations [3]: about 6 fold

SMILES: Nc1ccn([C@@H]2O[C@H](CO)[C@@H](O)C2(F)F)c(=O)n1 [gemcitabine, 2′,2′-difluorodeoxycytidine]
- tumor growth compared to vehicle only [4]: inhibited tumor growth at all doses tested
- Median Survival Time [5]: 38 days
- level of CA19-9 marker in serum [6]: approximately similar to vehicle only control
- median survival [7]: over 5 months
- half-life in plasma [8]: approximately 10 minutes

SMILES: C[C@H]1C[C@@H]2[C@H]([C@@H](O)C[C@@]3(C)[C@H]2CC[C@]3(O)C(=O)COC(=O)CCC(=O)O)[C@@]2(C)C=CC(=O)C=C12 [Methylprednisolone sodium succinate]
- Equivalent Potency [2]: 4 mg

SMILES: C[C@]12C=CC(=O)C=C1CC[C@@H]1[C@@H]2[C@@H](O)C[C@@]2(C)[C@H]1CC[C@]2(O)C(=O)CO [Prednisolone]
- Equivalent Potency [2]: 5 mg
